In patent publication US20100160440A1, “INTRANASAL PHARMACEUTICAL COMPOSITIONS COMPRISING SUCCINIC ACID AND METHODS THEREOF” (priority 2007, published 2010):
Where two headings read alike, the source gives them in different places.

Test system: male Wistar rats injected with beta-amyloid peptide 25-35 into NBM
Settings: for Improvement in learning and memory as compared to control rats: 1 mg/kg for 7 days; for Latency (retention latency to enter dark compartment, mean±SD): 1 mg/kg succinic acid water solution once a day for 7 days from day 16 after beta-amyloid, retention trial 24 h after acquisition, cut-off 180 s, n=8
Method: Beta-amyloid was administered bilaterally into NBM of male Wistar rats in dose of 2 μg per each side. On day 16th after the amyloid injection, rats received intranasally or intraperitoneally compositions comprising a water solution of 1 mg/kg of succinic acid for 7 days singly a day. Control rats received saline intranasally. On day next to the last day of the treatment, passive avoidance performance in rats was tested for two consecutive days. A two-compartment, step-through, passive avoidance apparatus consisting of illuminated (25×40×25 cm) and dark (25×40×25 cm) compartments attached to an electrified grid floor and separated by a guillotine door (8×8 cm) was used. In the acquisition trial, the rat was placed in the illuminated compartment in a position its tail directed to the closed door for 2 min to habituate to the apparatus. The guillotine door was opened and time to enter to dark compartment was recorded. When the rat entered to dark compartment completely (four foots in dark compartment), the guillotine door was closed and the rat was delivered an electrical shock of 0.8 mA for 3 sec through the grid floor. After the shock, the rat was immediately placed in home cage. In the retention trial, conducted 24 h after the acquisition trial, the rat was placed in the illuminated compartment and the retention latency to enter into the dark compartment was recorded until 180 s had elapsed. […] Data are presented as retention latency mean±SD (n=8).

Compound: O=C(O)CCC(=O)O [Succinic acid]
- Improvement in learning and memory as compared to control rats (intranasally treated rats): significant improvement in learning and memory
- Latency (retention latency to enter dark compartment, mean±SD) (intranasally): 87 ± 21 s
- Improvement in learning and memory as compared to control rats (intraperitoneally treated rats): do not
- Latency (retention latency to enter dark compartment, mean±SD) (intraperitoneally): 43 ± 19 s
